{
  "source": "patent EP2186507A2",
  "about": "“A liquid pharmaceutical formulation comprising nicotine for the administration to the oral cavity” (McNeil AB, priority 2001, dated 2003)",
  "key": {"[1]": {"settings": "Merck Index; cited from earlier work"}, "[2]": {"from_the_text": "Absorption of nicotine from the oral cavity to the systemic circulation is dependent on the pH of the saliva and the pKa of nicotine, which is about 7.8. Assuming a pH of the saliva of 6.8 only about 10% of the nicotine in saliva will be in the free base form. Thus, in order to promote absorption of nicotine in a free base form, which is the form predominantly absorbed through the mucosa, the pH of the saliva must be increased. At a pH of 8.8 about 90% of the nicotine in saliva will then be in the free base form."}},
  "note": "Where two headings read alike, the source gives them in different places.",
  "data": [
    {"smiles": "CN1CCCC1c1cccnc1", "note": "(stereo not drawn) [nicotine, 3-(1-methyl-2-pyrrolidinyl)-pyridine]", "values": [
      {"measurement": "amount that may kill an adult", "setting": "[1]", "result": "Approximately forty"},
      {"measurement": "nicotine in saliva in the free base form", "setting": "[2]; assuming a pH of the saliva of 6.8", "result": "about 10%"},
      {"measurement": "nicotine in saliva in the free base form", "setting": "[2]; at a pH of 8.8", "result": "about 90%"}
    ]}
  ]
}
